Residues, ends and D or L forms follow the SMILES beside them. *: point of attachment. Cbz = O=C(OCc1ccccc1)*; CH2F = FC*
Experiments:
786-O cells [1] = test: Phosphorylation of S194-FADD by western blot; assay type: cell-based, Human; details: indicated amounts, 24hrs
[2] = system: VHL-null ccRCC cell lines; details: ref [2]; cited from earlier work
786-O cells [3] = test: Induction of apoptosis by immunoblotting of apoptotic markers; assay type: cell-based, Human
A498 cells = test: Phosphorylation of S194-FADD by western blot; assay type: cell-based, Human; details: indicated amounts, 24hrs
VHL-null ccRCC cells = test: Propidium iodide staining, cell death by flow cytometry; assay type: cell-based, Human; details: 30 or 40μM, A498 and 786-O versus Caki-1 and Caki-2; dose dependent
HEK293 cells = test: Hsp90 inhibition time course, protein levels by immunoblot; assay type: cell-based, Human; details: 2μM
786-O cells [4] = test: Cell viability / proliferation; assay type: cell-based, Human; details: varying doses, 48hrs
recombinant PP5-His6 = target: T1, recombinant PP5-His6 (Homo sapiens, UniProt P53041); test: PP5 phosphatase activity and inhibition assay; assay type: biochemical; details: phospho-S211-GR peptide substrate
T1 sequence (P53041 1-499): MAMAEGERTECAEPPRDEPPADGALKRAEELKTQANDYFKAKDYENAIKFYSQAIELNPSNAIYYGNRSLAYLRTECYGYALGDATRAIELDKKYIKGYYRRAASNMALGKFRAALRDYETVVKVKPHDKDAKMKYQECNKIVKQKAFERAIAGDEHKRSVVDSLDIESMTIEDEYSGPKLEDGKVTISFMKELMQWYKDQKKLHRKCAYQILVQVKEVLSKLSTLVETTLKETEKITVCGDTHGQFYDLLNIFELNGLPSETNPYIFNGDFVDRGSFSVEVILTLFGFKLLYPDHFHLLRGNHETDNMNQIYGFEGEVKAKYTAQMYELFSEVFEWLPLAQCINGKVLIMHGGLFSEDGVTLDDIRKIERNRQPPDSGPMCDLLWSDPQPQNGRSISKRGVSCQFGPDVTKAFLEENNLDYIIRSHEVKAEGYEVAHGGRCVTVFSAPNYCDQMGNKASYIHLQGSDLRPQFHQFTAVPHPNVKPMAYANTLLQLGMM

PP2A = test: Biotinylated compound pulldown from 786-O lysate, co-pulldown of PP2A; assay type: binding, Human; details: 1μM
[5] = system: PP5-FLAG active site point mutants; test: Biotin-P13 streptavidin pulldown of PP5 active site point mutants; assay type: binding, Human
[6] = target: T2, PP5-FLAG active site point mutants (Homo sapiens, UniProt P53041, R400A); test: as above; assay type: binding; details: R400A mutant
T2 sequence (P53041 2-499 R400A): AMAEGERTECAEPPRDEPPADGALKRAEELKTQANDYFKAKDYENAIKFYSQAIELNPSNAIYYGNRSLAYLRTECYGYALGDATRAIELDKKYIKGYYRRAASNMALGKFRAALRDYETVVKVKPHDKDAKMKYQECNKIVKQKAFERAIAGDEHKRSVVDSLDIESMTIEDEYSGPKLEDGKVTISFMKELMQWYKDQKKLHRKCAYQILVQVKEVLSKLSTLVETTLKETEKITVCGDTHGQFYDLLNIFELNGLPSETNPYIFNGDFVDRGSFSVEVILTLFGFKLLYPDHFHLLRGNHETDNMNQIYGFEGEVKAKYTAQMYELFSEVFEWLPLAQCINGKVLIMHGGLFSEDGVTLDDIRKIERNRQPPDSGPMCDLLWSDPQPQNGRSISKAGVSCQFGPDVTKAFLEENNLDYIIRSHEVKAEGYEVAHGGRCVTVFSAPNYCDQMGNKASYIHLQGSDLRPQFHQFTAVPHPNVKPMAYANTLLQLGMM

PP5-FLAG = target: T3, PP5-FLAG (Homo sapiens, UniProt P53041); test: Biotin-P5 and biotin-P13 streptavidin pulldown from HEK293 lysate; assay type: binding; details: for binding to PP5-FLAG (co-pulldown): HEK293 lysate, 0.01-10μM biotinylated compound
T3 sequence (P53041 1-499): T1 sequence (P53041 1-499)

PP5 = details: ref [52]-[54]; cited from earlier work
PP1 = details: ref [52]-[54]; cited from earlier work

For `COc1cc(OC)c(C=C2C(O)=Nc3ccccc32)c(OC)c1` [IC261], the S194-FADD phosphorylation (786-O cells [1]) is listed as “increase in S194-FADD phosphorylation”, the PP5 activity [2] is listed as “decreased PP5 activity” and the apoptosis [2] is listed as “induced apoptosis”. The “induction of extrinsic apoptosis (apoptotic markers)” value (786-O cells [3]; indicated amounts, 16hrs) was “induced extrinsic apoptosis in a dose-dependent manner” and the S194-FADD phosphorylation (A498 cells) was “increase in S194-FADD phosphorylation”.

In the case of `CCCCN(c1ccc(Oc2ccccc2)cc1)S(=O)(=O)c1c(C)noc1C` [Compound P058, N-Butyl(3,5-dimethyl-4-isoxazolylsulfonyl)(p-phenoxyphenyl)amine], the “induction of apoptosis (cleaved PARP, cleaved caspase 8)” value (shortened to “induction of apoptosis”) (786-O cells [3]; 10μM, 24hrs) is reported as “ability to induce apoptosis”.

For `Cc1noc(C)c1S(=O)(=O)Nc1ccc(Cc2ccccc2)cc1` [Compound P053, (3,5-Dimethyl-4-isoxazolylsulfonyl)(p-benzylphenyl)amine], the “cleavage of caspase 3 and PARP” value (786-O cells [3]; 10μM, 24hrs) was “increased cleavage of the executioner caspase 3”, the “cleavage of caspase 8 and caspase 9 (extrinsic versus intrinsic apoptosis)” value (786-O cells [3]; 10μM, 24hrs) was “cleavage of caspase 8 but not caspase 9” and the “induction of apoptosis” value (786-O cells [3]; 10μM, 24hrs) was “ability to induce apoptosis”. The “cell death (PI stained cells)” value (VHL-null ccRCC cells) was “selectively caused cell death”.

For `Cc1noc(C)c1S(=O)(=O)N(CCCCl)c1ccc(Oc2ccccc2)cc1` [Compound P059, (3-Chloropropyl)(3,5-dimethyl-4-isoxazolylsulfonyl)(p-phenoxyphenyl)amine], the “induction of apoptosis” value (786-O cells [3]; 10μM, 24hrs) was “ability to induce apoptosis”.

For `Cc1noc(C)c1S(=O)(=O)N(CCCC#N)c1ccc(Oc2ccccc2)cc1` [Compound P075, 4-[(3,5-Dimethyl-4-isoxazolylsulfonyl)(p-phenoxyphenyl)amino]butyronitrile], the “induction of apoptosis” value (786-O cells [3]; 10μM, 24hrs) was “ability to induce apoptosis”.

For `CC1(C)CC(=O)c2c(C(F)(F)F)nn(-c3ccc(C(N)=O)c(N[C@H]4CC[C@H](O)CC4)c3)c2C1` [SNX-2112], the RIPK1 protein levels (HEK293 cells; 16 hr) was “decreased RIPK1 protein levels”, the FADD protein levels (HEK293 cells; throughout the time course) was “did not observe a decrease in FADD levels” and the “Hsp90 clients Tsc2, Akt and phos-Ser473-Akt protein levels” value (HEK293 cells; time course) was “destabilized and degraded”.

For `COC(=O)c1cccc(NS(=O)(=O)c2c(C)noc2C)c1` [Compound P5, Methyl m-(3,5-dimethyl-4-isoxazolylsulfonylamino)benzoate], the “proliferation of 786-O cells (MTT)” value (786-O cells [4]) was “significantly inhibited the proliferation”, the “mode of PP5 inhibition (enzyme kinetics, Lineweaver-Burk plot)” value (recombinant PP5-His6) was “competitive inhibitors” and the “cleavage of apoptotic markers (immunoblot)” value (786-O cells [3]; 10μM, 24hrs) was “cleavage of the apoptotic markers caspase 3 and 8 and PARP”.

For `COC(=O)C[C@H](NC(=O)[C@H](C)NC(=O)[C@@H](NC(=O)OCc1ccccc1)C(C)C)C(=O)CF` [z-VAD-fmk, reference compound] (Cbz-Val-Ala-Asp(OMe)-CH2F), the “effect on IC261-induced extrinsic apoptosis” value (786-O cells [3]; 10μM for 1hr, then IC261 for 16hrs) was “reversed this effect”.

In the case of `Cc1ccc(N(CCCNC(=O)CCC[C@@H]2SC[C@@H]3NC(=O)N[C@@H]32)S(=O)(=O)c2c(C)noc2C)cc1C` [biotin-P13, 4-[(3aS,4S,6aR)-2-Oxo-hexahydro-1H-thieno[3,4-d]imidazol-4-yl]-N-(3-[N-(3,4-dimethylphenyl)3,5-dimethyl-1,2-oxazole-4-sulfonamido]propyl}butanamide], the “binding to PP2A (co-pulldown)” value (PP2A) is reported as “did not bind to PP2A”, the “binding of PP5 mutants to biotinylated compound” value ([5]; H304Q, M309C and W386F mutants) is reported as “unable to bind” and the “binding of PP5 mutants to biotinylated compound compared to WT PP5” value ([5]; R275A and Y451F mutants) is reported as “increased binding”. The “binding of PP5 mutant to biotinylated compound compared to WT PP5” value [6] was “reduced binding”, the “binding to PP5-FLAG relative to biotin-P5” value (PP5-FLAG; 10μM) was “bound more” and the “binding to PP5-FLAG (co-pulldown)” value (PP5-FLAG) was “binds”.

For `CN1CCN(C(=O)C2C(C(=O)O)[C@H]3CC[C@@H]2O3)CC1` (some centres unmarked) [LB-100], the “inhibition of PP5” value (PP5) is listed as “inhibit PP5 and PP1” and the “inhibition of PP1” value (PP1) is listed as “inhibit PP5 and PP1”.

In the case of `Cc1ccc(NS(=O)(=O)c2c(C)noc2C)cc1C` [Compound P13, (3,5-Dimethyl-4-isoxazolylsulfonyl)(3,4-xylyl)amine], the “proliferation of 786-O cells (MTT)” value (786-O cells [4]) is reported as “significantly inhibited the proliferation”, the “mode of PP5 inhibition (enzyme kinetics, Lineweaver-Burk plot)” value (recombinant PP5-His6) is reported as “competitive inhibitors” and the “cleavage of apoptotic markers (immunoblot)” value (786-O cells [3]; 10μM, 24hrs) is reported as “cleavage of the apoptotic markers caspase 3 and 8 and PARP”.

For `Cc1noc(C)c1S(=O)(=O)Nc1cccc(C(=O)N2CCN(C(=O)CCC[C@@H]3SC[C@@H]4NC(=O)N[C@@H]43)CC2)c1` [biotin-P5, N-[3-(4-(4-[(3aS,4S,6aR)-2-Oxo-hexahydro-1H-thieno[3,4-d]imidazol-4-yl]butanoyl)piperazine-1-carbonyl)phenyl]-3,5-dimethyl-1,2-oxazole-4-sulfonamide], the “binding to PP2A (co-pulldown)” value (PP2A) was “did not bind to PP2A” and the “binding to PP5-FLAG (co-pulldown)” value (PP5-FLAG) was “binds”.
